The values below come from patent US20240101576A1, “HETEROCYCLIC INHIBITORS OF EGFR AND/OR HER2, FOR USE IN THE TREATMENT OF CANCER” (Scorpion Therapeutics, Inc., priority 2020, published 2024).

Assay type in all cases: cell-based
One assay has as its target T1, EGFR WT (Ba/F3 cells) (Homo sapiens, UniProt P00533).
T1 construct: expressed in transfected cells; host or cells: Ba/F3 (murine pro-B cells), retroviral transduction, puromycin selection, maintained with EGF
Nature of the assay: Inhibitor activity on EGFR-dependent cell growth (CellTiter-Glo, 72 h), Ba/F3 EGFR WT. The conditions noted are these: read-out: BaF3 WT IC50. An excerpt:
(§1) Example A. Inhibitor Activity on EGFR-Dependent Cell Growth
(§2) Cell lines are generated by transducing Ba/F3 cells with retroviruses containing vectors with EGFR WT, EGFR L858R, EGFR exon 19del, EGFR L858R/C797S, EGFR exon 20 NPG Ins D770_N771, EGFR exon 20 ASV Ins V769_D770, EGFR exon 20 SVD Ins D770_N771, or EGFR exon 20 FQEA Ins A763_V764 genes and a puromycin selection marker. Transduced cells are selected with puromycin for 7 days and are then be transferred into culture media without Interleukin 3 (IL3). EGFR WT cells are maintained with supplemental EGF. Surviving cells are confirmed to express EGFR by Western blot and maintained as a pool. The IC50 date were included in Table 6 and Table 7.
(§3) 1.1 Cells are harvested from flask into cell culture medium and the cell number counted.
(§4) 1.2 Cells are diluted with culture medium to the desired density and 40 μL of cell suspension is added into each well of 384-well cell culture plate and the seeding density is 800 (FQEA, exon 19del), 600 (WT, NPG, L858R/C797S), or 400 (ASV, SVD, L858R) cells/well.
(§5) 2 Compound Preparation and Treatment
(§6) 2.1 Test compounds are dissolved to 10 mM in a DMSO stock solution. 45 μL of stock solution is transferred to a 384 polypropylene plate (pp-plate). Perform 3-fold, 10-point dilution via transferring 15 μL compound into 30 μL DMSO using a TECAN (EVO200) liquid handler.
(§7) 2.2 Spin plates at room temperature at 1,000 RPM for 1 minute.
(§8) 2.3 Transfer 120 nL of diluted compound from compound source plate into the cell plate.
(§9) 2.4 After compound treatment for 72 hours, perform CTG detection for compound treatment plates as described in “Detection” section.
(§10) 3.1 Plates are removed from incubators and equilibrated at room temperature for 15 minutes.
(§11) 3.2 Thaw the CellTiter Glo reagents and allow to equilibrate to room temperature before the experiment.
(§12) 3.3 Add 40 μL of CellTiter-Glo reagent into each well (at 1:1 to culture medium). Then place the plates at room temperature for 30 min followed by reading on EnVision.
(§13) 4.1 Inhibition activity is calculated following the formula below:
(§14) % Inhibition=100×(LumHC−LumSample)/(LumHC−LumLC) • where HC is obtained from cells treated with 0.1% DMSO only; and LC is obtained from culture medium only.
(§15) 4.2 2. Calculate the IC50 by fitting the Curve using Xlfit (v5.3.1.3), equation 201.
(§16) Y=Bottom+(Top−Bottom)/(1+10^((Log IC50−X)*HillSlope))
On the technique in general: ATP-based viability assays read luminescence as a measure of living cells.

Assay [1] concerns the target T2, EGFR exon 20 ASV Ins V769_D770 (Ba/F3 cells) (Homo sapiens, UniProt P00533, INS769ASV).
T2 construct: expressed in transfected cells; host or cells: Ba/F3 (murine pro-B cells), retroviral transduction, puromycin selection, IL3-independent pool
Nature of the assay: Inhibitor activity on EGFR-dependent cell growth (CellTiter-Glo, 72 h), Ba/F3 EGFR exon 20 ASV Ins. The settings on record: read-out: BaF3 ASV IC50.
Source text: as §1, §2, §3, §4, §5, §6, §7, §8, §9, §10, §11, §12, §13, §14, §15, §16

Assay [2] deals with T3, EGFR exon 20 SVD Ins D770_N771 (Ba/F3 cells) (Homo sapiens, UniProt P00533, INS770SVD).
T3 construct: expressed in transfected cells; host or cells: Ba/F3 (murine pro-B cells), retroviral transduction, puromycin selection, IL3-independent pool
T3 sequence (P00533 with tags, fused parts or gaps INS770SVD): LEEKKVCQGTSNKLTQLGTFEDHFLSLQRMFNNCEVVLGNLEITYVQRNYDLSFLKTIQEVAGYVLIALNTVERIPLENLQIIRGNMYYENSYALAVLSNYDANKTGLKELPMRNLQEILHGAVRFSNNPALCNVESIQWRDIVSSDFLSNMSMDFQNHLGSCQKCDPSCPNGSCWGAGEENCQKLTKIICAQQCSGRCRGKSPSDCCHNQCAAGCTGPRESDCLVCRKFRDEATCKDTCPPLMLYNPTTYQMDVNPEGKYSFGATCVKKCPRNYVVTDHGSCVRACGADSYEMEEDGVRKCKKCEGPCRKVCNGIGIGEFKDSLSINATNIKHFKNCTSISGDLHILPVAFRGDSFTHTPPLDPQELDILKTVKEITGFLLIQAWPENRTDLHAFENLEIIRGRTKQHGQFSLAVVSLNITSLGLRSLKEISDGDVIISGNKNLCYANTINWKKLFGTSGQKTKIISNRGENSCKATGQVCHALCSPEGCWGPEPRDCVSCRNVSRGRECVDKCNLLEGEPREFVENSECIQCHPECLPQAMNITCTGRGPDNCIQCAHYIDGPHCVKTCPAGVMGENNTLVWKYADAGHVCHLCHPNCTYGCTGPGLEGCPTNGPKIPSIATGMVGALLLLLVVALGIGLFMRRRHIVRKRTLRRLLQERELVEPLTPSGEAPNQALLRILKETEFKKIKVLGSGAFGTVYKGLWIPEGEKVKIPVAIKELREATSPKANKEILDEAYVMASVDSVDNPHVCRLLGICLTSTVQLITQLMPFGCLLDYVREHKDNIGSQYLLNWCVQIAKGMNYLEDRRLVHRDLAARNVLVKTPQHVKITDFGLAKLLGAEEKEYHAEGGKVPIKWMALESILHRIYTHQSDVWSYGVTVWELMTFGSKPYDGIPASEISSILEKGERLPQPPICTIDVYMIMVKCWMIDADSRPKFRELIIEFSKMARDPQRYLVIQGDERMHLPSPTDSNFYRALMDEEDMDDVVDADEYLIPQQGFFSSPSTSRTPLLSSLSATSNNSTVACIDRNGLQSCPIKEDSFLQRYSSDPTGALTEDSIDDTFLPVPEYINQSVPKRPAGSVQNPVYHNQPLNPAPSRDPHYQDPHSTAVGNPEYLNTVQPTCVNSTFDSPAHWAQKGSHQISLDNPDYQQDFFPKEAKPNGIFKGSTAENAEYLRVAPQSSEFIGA
Nature of the assay: Inhibitor activity on EGFR-dependent cell growth (CellTiter-Glo, 72 h), Ba/F3 EGFR exon 20 SVD Ins. The settings on record: read-out: BaF3 SVD IC50.
Source text: as §1, §2, §3, §4, §5, §6, §7, §8, §9, §10, §11, §12, §13, §14, §15, §16

For assay [3], the target named is T4, EGFR exon 20 FQEA Ins A763_V764 (Ba/F3 cells) (Homo sapiens, UniProt P00533, INS763FQEA).
T4 construct: expressed in transfected cells; host or cells: Ba/F3 (murine pro-B cells), retroviral transduction, puromycin selection, IL3-independent pool
T4 sequence (P00533 with tags, fused parts or gaps INS763FQEA): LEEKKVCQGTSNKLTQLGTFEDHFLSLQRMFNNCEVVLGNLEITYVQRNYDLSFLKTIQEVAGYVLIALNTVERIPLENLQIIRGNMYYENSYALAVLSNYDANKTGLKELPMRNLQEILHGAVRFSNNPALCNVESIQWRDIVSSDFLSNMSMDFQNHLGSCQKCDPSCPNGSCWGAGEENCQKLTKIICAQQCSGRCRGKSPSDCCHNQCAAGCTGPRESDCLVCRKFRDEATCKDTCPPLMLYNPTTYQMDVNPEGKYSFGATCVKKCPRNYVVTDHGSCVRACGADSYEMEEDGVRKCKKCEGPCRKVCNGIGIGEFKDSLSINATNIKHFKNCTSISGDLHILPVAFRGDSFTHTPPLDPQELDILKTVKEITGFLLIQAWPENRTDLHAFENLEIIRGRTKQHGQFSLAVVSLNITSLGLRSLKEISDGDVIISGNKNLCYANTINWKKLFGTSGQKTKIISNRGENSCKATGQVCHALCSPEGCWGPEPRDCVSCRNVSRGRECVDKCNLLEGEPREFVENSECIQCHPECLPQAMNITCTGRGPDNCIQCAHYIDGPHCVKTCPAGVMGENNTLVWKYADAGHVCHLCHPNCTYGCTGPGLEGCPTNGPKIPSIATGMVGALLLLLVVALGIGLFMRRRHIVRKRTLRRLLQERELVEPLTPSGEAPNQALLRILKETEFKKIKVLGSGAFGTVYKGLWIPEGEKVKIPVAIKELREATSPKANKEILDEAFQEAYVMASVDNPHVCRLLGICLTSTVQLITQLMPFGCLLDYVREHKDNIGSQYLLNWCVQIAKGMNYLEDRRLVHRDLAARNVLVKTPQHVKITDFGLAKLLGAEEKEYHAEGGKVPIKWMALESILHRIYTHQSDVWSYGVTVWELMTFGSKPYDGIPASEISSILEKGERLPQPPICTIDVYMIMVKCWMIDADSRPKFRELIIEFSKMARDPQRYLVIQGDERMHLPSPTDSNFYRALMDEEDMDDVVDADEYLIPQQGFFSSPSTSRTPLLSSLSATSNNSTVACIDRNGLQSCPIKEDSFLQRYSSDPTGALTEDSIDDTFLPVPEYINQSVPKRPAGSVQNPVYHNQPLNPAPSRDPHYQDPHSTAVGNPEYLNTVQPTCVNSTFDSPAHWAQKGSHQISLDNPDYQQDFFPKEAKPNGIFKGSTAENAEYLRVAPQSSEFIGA
Nature of the assay: Inhibitor activity on EGFR-dependent cell growth (CellTiter-Glo, 72 h), Ba/F3 EGFR exon 20 FQEA Ins. The settings on record: read-out: BaF3 FQEA IC50.
Source text: as §1, §2, §3, §4, §5, §6, §7, §8, §9, §10, §11, §12, §13, §14, §15, §16

The structures appear in SMILES notation. A value given as a limit tells only on which side of the number the result lay.

For orientation: IC50 means the concentration that inhibits the measured activity by half.

T1 sequence (P00533 25-1210): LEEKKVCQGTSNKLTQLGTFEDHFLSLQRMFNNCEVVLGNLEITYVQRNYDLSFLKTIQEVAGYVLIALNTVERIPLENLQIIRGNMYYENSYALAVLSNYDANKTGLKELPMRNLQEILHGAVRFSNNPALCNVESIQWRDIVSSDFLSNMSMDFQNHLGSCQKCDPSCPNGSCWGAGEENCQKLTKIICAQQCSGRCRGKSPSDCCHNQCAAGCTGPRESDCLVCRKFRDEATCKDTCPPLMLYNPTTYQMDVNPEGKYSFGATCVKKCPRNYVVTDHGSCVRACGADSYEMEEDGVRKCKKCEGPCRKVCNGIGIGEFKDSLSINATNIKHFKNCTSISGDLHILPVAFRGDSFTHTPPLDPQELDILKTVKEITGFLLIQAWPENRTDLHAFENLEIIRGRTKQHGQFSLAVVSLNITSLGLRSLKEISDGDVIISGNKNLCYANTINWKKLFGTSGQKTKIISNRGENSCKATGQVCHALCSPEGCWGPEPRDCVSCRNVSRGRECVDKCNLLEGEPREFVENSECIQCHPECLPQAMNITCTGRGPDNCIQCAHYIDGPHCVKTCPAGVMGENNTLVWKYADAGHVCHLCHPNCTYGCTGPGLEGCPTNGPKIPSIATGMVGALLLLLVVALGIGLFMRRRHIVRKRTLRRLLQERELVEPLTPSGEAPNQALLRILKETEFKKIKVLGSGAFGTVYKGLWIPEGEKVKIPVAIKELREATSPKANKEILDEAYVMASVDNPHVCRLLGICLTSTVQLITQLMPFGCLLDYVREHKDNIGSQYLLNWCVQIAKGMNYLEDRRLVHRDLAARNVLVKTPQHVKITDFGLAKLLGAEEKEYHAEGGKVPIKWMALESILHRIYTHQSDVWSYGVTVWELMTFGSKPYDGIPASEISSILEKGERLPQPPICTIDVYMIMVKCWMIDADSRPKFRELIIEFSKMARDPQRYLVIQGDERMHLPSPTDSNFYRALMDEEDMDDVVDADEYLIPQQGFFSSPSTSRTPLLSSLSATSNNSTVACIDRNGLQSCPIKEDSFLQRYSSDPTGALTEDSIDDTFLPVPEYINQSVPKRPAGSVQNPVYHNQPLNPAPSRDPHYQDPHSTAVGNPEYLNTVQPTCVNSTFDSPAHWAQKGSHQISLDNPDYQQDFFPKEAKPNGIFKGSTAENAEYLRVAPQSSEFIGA
T2 sequence (P00533 with tags, fused parts or gaps INS769ASV): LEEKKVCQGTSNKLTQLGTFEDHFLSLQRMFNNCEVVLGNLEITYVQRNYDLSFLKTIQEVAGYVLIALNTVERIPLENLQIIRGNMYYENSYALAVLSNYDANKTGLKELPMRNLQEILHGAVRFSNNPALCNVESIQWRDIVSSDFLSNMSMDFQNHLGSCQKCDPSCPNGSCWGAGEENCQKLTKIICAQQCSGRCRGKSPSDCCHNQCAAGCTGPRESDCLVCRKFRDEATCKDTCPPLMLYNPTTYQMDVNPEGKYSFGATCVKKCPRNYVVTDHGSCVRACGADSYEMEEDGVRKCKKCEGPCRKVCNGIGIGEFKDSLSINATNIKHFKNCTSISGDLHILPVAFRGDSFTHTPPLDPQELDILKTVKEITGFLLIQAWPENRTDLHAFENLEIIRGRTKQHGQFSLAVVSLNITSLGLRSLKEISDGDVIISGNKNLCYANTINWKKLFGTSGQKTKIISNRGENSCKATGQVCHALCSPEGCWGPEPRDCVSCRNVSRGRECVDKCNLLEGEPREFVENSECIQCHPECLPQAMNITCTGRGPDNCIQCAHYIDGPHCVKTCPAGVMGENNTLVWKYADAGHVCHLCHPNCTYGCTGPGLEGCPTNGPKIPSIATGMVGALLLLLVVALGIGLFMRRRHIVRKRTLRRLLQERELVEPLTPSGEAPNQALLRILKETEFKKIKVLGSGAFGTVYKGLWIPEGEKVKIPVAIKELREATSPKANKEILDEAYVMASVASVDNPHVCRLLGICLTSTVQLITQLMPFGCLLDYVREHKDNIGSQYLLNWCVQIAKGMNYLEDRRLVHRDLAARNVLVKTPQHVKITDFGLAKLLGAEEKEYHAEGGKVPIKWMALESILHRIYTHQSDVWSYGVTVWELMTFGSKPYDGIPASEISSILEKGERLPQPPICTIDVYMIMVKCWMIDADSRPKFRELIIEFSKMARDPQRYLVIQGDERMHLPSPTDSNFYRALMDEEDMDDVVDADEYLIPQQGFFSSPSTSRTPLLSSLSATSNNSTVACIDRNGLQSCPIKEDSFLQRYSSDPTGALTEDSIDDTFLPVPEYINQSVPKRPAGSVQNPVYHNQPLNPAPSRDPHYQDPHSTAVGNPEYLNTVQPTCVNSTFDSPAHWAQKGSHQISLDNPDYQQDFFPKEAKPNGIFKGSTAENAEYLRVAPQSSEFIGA

For the compound `COC(=O)N1CCC2(CC1)CNC(=O)c1c2[nH]c(-c2ccncc2F)c1Nc1cccc(Cl)c1OC` [Compound 479, methyl 3′-[(3-chloro-2-methoxyphenyl)amino]-2′-(3-fluoropyridin-4-yl)-4′-oxo-5′,6′-dihydro-1′H-spiro[piperidine-4,7′-pyrrolo[3,2-c]pyridine]-1-carboxylate], the IC50 on EGFR WT (Ba/F3 cells) is over 1000 nM; in assay [1] it was 100 to 1000 nM; in assay [2], 100 to 1000 nM; in assay [3], 100 to 1000 nM.

Consider `COc1c(Cl)cccc1Nc1c(-c2ccncc2F)[nH]c2c1C(=O)NC[C@H]2CC(=O)N(C)C` [Compound 487], for which the IC50 is over 1000 nM on EGFR WT (Ba/F3 cells), 100 to 1000 nM in assay [1], 100 to 1000 nM in assay [2] and 100 to 1000 nM in assay [3].

Turning to `COc1c(Cl)cccc1Nc1c(-c2ccncc2F)[nH]c2c1C(=O)NC[C@H]2CC(N)=O` [Compound 489], the IC50 at EGFR WT (Ba/F3 cells) was over 1000 nM; in assay [1], 100 to 1000 nM; in assay [2], 100 to 1000 nM; in assay [3], 100 to 1000 nM.

With `COc1c(Cl)cccc1Nc1c(-c2ccncc2F)[nH]c2c1C(=O)NC[C@@H]2CC(C)(C)O` [Compound 496, (7S)-3-[(3-chloro-2-methoxyphenyl)amino]-2-(3-fluoropyridin-4-yl)-7-(2-hydroxy-2-methylpropyl)-1H,5H,6H,7H-pyrrolo[3,2-c]pyridin-4-one], the IC50 at EGFR WT (Ba/F3 cells) was over 1000 nM; in assay [1], 100 to 1000 nM; in assay [2], 100 to 1000 nM; in assay [3] it was 100 to 1000 nM.

On to `COc1ncc2nccc(-c3[nH]c4c(c3Nc3cccc(Cl)c3OC)C(=O)N[C@@H](C(F)(F)F)C4)c2n1` [Compound 507, (6R)-3-[(3-chloro-2-methoxyphenyl)amino]-2-{2-methoxypyrido[3,2-d]pyrimidin-8-yl}-6-(trifluoromethyl)-1H,5H,6H,7H-pyrrolo[3,2-c]pyridin-4-one], for which the IC50 at EGFR WT (Ba/F3 cells) is 100 to 1000 nM; in assay [1], under 100 nM; in assay [2], under 100 nM; in assay [3], under 100 nM.

Regarding `COc1ncc2nccc(-c3[nH]c4c(c3Nc3cccc(Cl)c3OC)C(=O)N[C@H](C(F)(F)F)C4)c2n1` [Compound 508, (6S)-3-[(3-chloro-2-methoxyphenyl)amino]-2-{2-methoxypyrido[3,2-d]pyrimidin-8-yl}-6-(trifluoromethyl)-1H,5H,6H,7H-pyrrolo[3,2-c]pyridin-4-one], the IC50 on EGFR WT (Ba/F3 cells) was over 1000 nM; in assay [1], over 1000 nM; in assay [2], 100 to 1000 nM; in assay [3], 100 to 1000 nM.

As to `COc1c(Cl)cccc1Nc1c(-c2ccnc(NCc3ccn(C)n3)n2)[nH]c2c1C(=O)NCC2` [Compound 709, 3-[(3-chloro-2-methoxyphenyl)amino]-2-(2-[[(1-methylpyrazol-3-yl)methyl]amino]pyrimidin-4-yl)-1H,5H,6H,7H-pyrrolo[3,2-c]pyridin-4-one], the IC50 on EGFR WT (Ba/F3 cells) was 100 to 1000 nM; in assay [1], under 100 nM; in assay [2], under 100 nM; in assay [3], 100 to 1000 nM.

For `COc1ccc2nccc(-c3[nH]c4c(c3Nc3cccc(Cl)c3OC)C(=O)NC[C@@H]4CCF)c2n1` [Compound 744, (S)-3-((3-chloro-2-methoxyphenyl)amino)-7-(2-fluoroethyl)-2-(6-methoxy-1,5-naphthyridin-4-yl)-1,5,6,7-tetrahydro-4H-pyrrolo[3,2-c]pyridin-4-one], the IC50 (on EGFR WT (Ba/F3 cells); in assay [1]; in assay [2]; in assay [3]) was under 100 nM throughout.

`COc1ccc2nccc(-c3[nH]c4c(c3Nc3cccc(Cl)c3OC)C(=O)NC[C@H]4CCF)c2n1` [Compound 745, (R)-3-((3-chloro-2-methoxyphenyl)amino)-7-(2-fluoroethyl)-2-(6-methoxy-1,5-naphthyridin-4-yl)-1,5,6,7-tetrahydro-4H-pyrrolo[3,2-c]pyridin-4-one]: the IC50 (on EGFR WT (Ba/F3 cells); in assay [1]; in assay [2]; in assay [3]) was under 100 nM in each case.

Turning to `COc1c(Cl)cccc1Nc1c(-c2ccncc2F)[nH]c2c1C(=O)NCC21COC1` [Compound 748, 3′-[(3-chloro-2-methoxyphenyl)amino]-2′-(3-fluoropyridin-4-yl)-5′,6′-dihydro-1′H-spiro[oxetane-3,7′-pyrrolo[3,2-c]pyridin]-4′-one], the half-inhibitory concentration (IC50) was over 1000 nM at EGFR WT (Ba/F3 cells), 100 to 1000 nM in assay [1], 100 to 1000 nM in assay [2] and 100 to 1000 nM in assay [3].

In the case of `COc1c(Cl)cccc1Nc1c(-c2ccnc(N)n2)[nH]c2c1C(=O)NC(CO)C2` (centres unmarked) [Compound 751, 2-(2-aminopyrimidin-4-yl)-3-[(3-chloro-2-methoxyphenyl)amino]-6-(hydroxymethyl)-1H,5H,6H,7H-pyrrolo[3,2-c]pyridin-4-one], the IC50 on EGFR WT (Ba/F3 cells) was over 1000 nM; in assay [1], 100 to 1000 nM; in assay [2], 100 to 1000 nM; in assay [3] it was 100 to 1000 nM.

With `COc1ccc2nccc(-c3[nH]c4c(c3Nc3cccc(Cl)c3OC)C(=O)NCC43CCC3)c2n1` [Compound 760, 3′-((3-chloro-2-methoxyphenyl)amino)-2′-(6-methoxy-1,5-naphthyridin-4-yl)-5′,6′-dihydrospiro[cyclobutane-1,7′-pyrrolo[3,2-c]pyridin]-4′(1′H)-one], the IC50 (on EGFR WT (Ba/F3 cells); in assay [1]; in assay [2]; in assay [3]) was under 100 nM throughout.

Turning to `COC[C@H]1CNC(=O)c2c1[nH]c(-c1ccnc3ccc(OC)nc13)c2Nc1cccc(Cl)c1OC` [Compound 764, (7S)-3-[(3-chloro-2-methoxyphenyl)amino]-2-(6-methoxy-1,5-naphthyridin-4-yl)-7-(methoxymethyl)-1H,5H,6H,7H-pyrrolo[3,2-c]pyridin-4-one], the IC50 (at EGFR WT (Ba/F3 cells); in assay [1]; in assay [2]; in assay [3]) was under 100 nM in each case.

On to `COc1c(Cl)cccc1Nc1c(-c2ccnc3ccc(OC4CC4)nc23)[nH]c2c1C(=O)NC[C@H]2C` [Compound 769, (R)-3-((3-chloro-2-methoxyphenyl)amino)-2-(6-cyclopropoxy-1,5-naphthyridin-4-yl)-7-methyl-1,5,6,7-tetrahydro-4H-pyrrolo[3,2-c]pyridin-4-one], for which the IC50 (at EGFR WT (Ba/F3 cells); in assay [1]; in assay [2]; in assay [3]) was under 100 nM each time.

`COc1c(Cl)cccc1Nc1c(-c2ccnc3ccc(OC4CC4)nc23)[nH]c2c1C(=O)NC[C@@H]2C` [Compound 770, (S)-3-((3-chloro-2-methoxyphenyl)amino)-2-(6-cyclopropoxy-1,5-naphthyridin-4-yl)-7-methyl-1,5,6,7-tetrahydro-4H-pyrrolo[3,2-c]pyridin-4-one]: the IC50 (on EGFR WT (Ba/F3 cells); in assay [1]; in assay [2]; in assay [3]) was under 100 nM in each case.

As to `COc1c(Cl)cccc1Nc1c(-c2ccnc3cnc(OC4CC4)nc23)[nH]c2c1C(=O)NCC2` [Compound 771, 3-[(3-chloro-2-methoxyphenyl)amino]-2-{2-cyclopropoxypyrido[3,2-d]pyrimidin-8-yl}-1H,5H,6H,7H-pyrrolo[3,2-c]pyridin-4-one], the IC50 (on EGFR WT (Ba/F3 cells); in assay [1]; in assay [2]; in assay [3]) was under 100 nM in each case.

With `COc1cc2c(-c3[nH]c4c(c3Nc3cccc(Cl)c3OC)C(=O)NCC4)ccnc2cn1` [Compound 772, 3-[(3-chloro-2-methoxyphenyl)amino]-2-(6-methoxy-1,7-naphthyridin-4-yl)-1H,5H,6H,7H-pyrrolo[3,2-c]pyridin-4-one], the IC50 (on EGFR WT (Ba/F3 cells); in assay [1]; in assay [2]; in assay [3]) was over 1000 nM each time.
